{
  "source": "patent US10858357B2",
  "about": "“Water-soluble myosin 2 inhibitors for the treatment of neurological, neuropathic or psychiatric diseases” (PARIS SCIENCES ET LETTRES-QUARTIER LATIN, priority 2016, dated 2020)",
  "key": {"[1]": {"molecular_target": "T1, rabbit skeletal muscle myosin S1 (SkS1) (Oryctolagus cuniculus, UniProt Q28641)", "T1 construct": "SkS1 (rabbit skeletal S1 fragment); from tissue; host or cells: rabbit skeletal muscle", "T1 sequence (Q28641 1-843 limits assumed)": "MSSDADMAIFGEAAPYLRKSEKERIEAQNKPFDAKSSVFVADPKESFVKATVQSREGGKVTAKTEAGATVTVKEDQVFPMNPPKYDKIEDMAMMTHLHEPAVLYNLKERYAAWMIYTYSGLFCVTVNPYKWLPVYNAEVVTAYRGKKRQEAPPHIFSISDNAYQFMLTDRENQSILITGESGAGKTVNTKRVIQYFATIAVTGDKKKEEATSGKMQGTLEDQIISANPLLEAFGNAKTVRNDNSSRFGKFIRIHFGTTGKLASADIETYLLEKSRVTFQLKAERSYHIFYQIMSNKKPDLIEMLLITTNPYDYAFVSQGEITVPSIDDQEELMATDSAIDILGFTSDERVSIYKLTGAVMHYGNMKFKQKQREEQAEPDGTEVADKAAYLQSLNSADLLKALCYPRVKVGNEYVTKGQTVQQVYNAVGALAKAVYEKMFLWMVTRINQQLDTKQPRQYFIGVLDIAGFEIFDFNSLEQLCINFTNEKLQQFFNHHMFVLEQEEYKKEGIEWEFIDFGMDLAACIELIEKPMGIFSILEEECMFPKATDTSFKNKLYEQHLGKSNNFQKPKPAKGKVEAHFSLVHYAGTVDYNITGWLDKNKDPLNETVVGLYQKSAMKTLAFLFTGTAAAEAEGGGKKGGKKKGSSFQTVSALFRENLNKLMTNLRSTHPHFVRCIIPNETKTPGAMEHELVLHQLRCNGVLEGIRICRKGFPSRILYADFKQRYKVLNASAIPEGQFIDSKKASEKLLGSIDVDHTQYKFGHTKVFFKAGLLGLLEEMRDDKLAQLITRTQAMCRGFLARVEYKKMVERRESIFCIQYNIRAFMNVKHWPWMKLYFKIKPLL", "T1 sequence (P02602 whole entry partner, the tested form may be a part)": "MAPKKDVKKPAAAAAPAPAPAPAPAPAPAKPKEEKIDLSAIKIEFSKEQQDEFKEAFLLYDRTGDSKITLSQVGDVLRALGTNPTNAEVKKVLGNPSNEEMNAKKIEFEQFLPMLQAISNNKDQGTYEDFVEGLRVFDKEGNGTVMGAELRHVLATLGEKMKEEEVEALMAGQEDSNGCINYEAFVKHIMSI", "assay": "Steady state MgATPase, NADH-coupled assay, SkS1", "format": "biochemical", "procedure": "(§1) MgATPase activities of 500 nM (for basal ATPase) or 50 nM (for actin activated ATPase) SkS1 (rabbit skeletal S1 fragment) 23 and 1 μM (for basal ATPase) or 300 nM (for actin activated ATPase) DdMD were measured at increasing concentrations of neurelaxin-A in the absence or in the presence of 45 μM actin for SkS1 or 15 μM actin for DdMD. Measurements were carried out using a pyruvate kinase/lactate dehydrogenase coupled assay (NADH-coupled assay) (Kovacs M. et al., J. Biol. Chem. 2004, 279 (34), pp 35557-35563) at 25° C. or 20° C. in case of SkS1 or DdMD, respectively. Myosin and actin together with the indicated concentration of the inhibitor were pre-incubated for 5 minutes at room temperature and the measurements were initiated with 1 mM ATP. Data were corrected for background ATPase activity of actin. G-actin was prepared accordingly from rabbit skeletal muscle (Spudich, J. A. & Watt, S.; The Journal of Biological Chemistry 246, 1971, pp 4866-4871) and polymerized by 2 mM MgCl2 for 1 hour at room temperature. Measurements were performed in low salt buffer containing 5 mM HEPES, 2 mM MgCl2, 0.1 mM EGTA and 2 mM DTT at pH 7.2 or assay buffer containing 20 mM HEPES, 40 mM NaCl, 4 mM MgCl2 at pH 7.3 for basal ATPase activity measurements with DdMD.\n(§2) The basal and actin activated ATPase activities of rabbit skeletal muscle myosin S1 (SkS1) and Dictyostelium discoideum myosin 2 motor domain (DdMD) were measured at increasing concentrations of neurelaxin-A (FIGS. 3A and 3B)."}, "[2]": {"test_system": "neurons", "assay": "Oxidative stress resistance (H2O2) of neurons", "format": "cell-based", "settings": "30 μM H2O2", "procedure": "Hydrogen Peroxide (H2O2) is used for generating reactive oxygen species and consequently, leading to oxidative stress and neuronal loss.\nIn this experiment, the neurons were first incubated with 30 μM of H2O2 or not (witness sample). Then, the neurons were treated with DMSO solutions with or without Neurelaxin-A."}, "[3]": {"test_system": "embryonic rat hippocampal neurons", "assay": "Cannabinoid (WIN55,212-2)-induced growth cone retraction", "format": "cell-based", "settings": "100 μM pre-treatment, WIN55,212-2 100 nM", "procedure": "Embryonic rat hippocampal neurons were isolated from 18-day-old embryo and cultured on poly-D-lysine coated dish in Neurobasal medium complemented with B27, FBS and glutamax for 6 days and transfected by using Lipofectamine 2000 with DNA codig for LifeAct-mCherry and CB1R-CFP.\nThe growth of neurites were monitored by fluorescent miscroscopy after the addition of different pre-treatment doses of neurelaxin-A at 20 minutes, followed 20 minutes later by the addition of 100 nM of the synthetic cannabinoid WIN55,212-2 as described in Roland et al, 2014."}, "[4]": {"test_system": "zebrafish heart muscle", "assay": "Zebrafish heart rate and amplitude of heart muscle contraction", "format": "in vivo, zebrafish (Danio rerio)", "settings": "20 μM, within three hours, 6 dpf zebrafish", "procedure": "For the fast escape response experiments, 6 dpf larvae were placed in 50 μl drops on a plastic plate. They were treated with 0, 2, 5, 10 or 20 μM of neurelaxin-A. To evoke C-start response, acoustic stimuli were applied according to the following protocol: 10 taps were carried out with 1 minute intervals every hour for 4 hours. The force of tapping was standardized. Images were recorded with Ximea Camera (MQ003MG-CM) at 500 fps for 2 s. Data were analyzed by Flote software version 2.1 and maximal angular velocity parameters of C-start reflex were quantified. For the experiments investigating the effect of the inhibitor on the heart muscle of zebrafish, 6 dpf larvae were embedded in 1% agarose and kept in E3 in the presence of 20 μM neurelaxin-A. Videos were taken by a camera at 15.1 fps before and after inhibitor treatment every hour for 3 hours.\nTransgenic Tg(−8.0cldnb:lynEGFP)^zf106 (cldnb:gfp) (Haas, P. & Gilmour, D., Developmental Cell 10, 2006, pp 673-680) zebrafish (Danio rerio) were maintained in the animal facility of Eötvös Loránd University. For the experiments investigating the skeletal and heart muscle of zebrafish, 6 dpf embryos were used. […]\nHeart beating and the amplitude of heart muscle contraction were monitored before and after the addition of 20 μM of neurelaxin-A to the zebrafish, imaging the same embryos every hour for three hours."}, "[5]": {"molecular_target": "T2, Dictyostelium discoideum myosin 2 motor domain (DdMD) (Dictyostelium discoideum, UniProt P08799)", "T2 construct": "Dictyostelium discoideum myosin 2 motor domain (DdMD)", "T2 sequence (P08799 86-759 limits assumed)": "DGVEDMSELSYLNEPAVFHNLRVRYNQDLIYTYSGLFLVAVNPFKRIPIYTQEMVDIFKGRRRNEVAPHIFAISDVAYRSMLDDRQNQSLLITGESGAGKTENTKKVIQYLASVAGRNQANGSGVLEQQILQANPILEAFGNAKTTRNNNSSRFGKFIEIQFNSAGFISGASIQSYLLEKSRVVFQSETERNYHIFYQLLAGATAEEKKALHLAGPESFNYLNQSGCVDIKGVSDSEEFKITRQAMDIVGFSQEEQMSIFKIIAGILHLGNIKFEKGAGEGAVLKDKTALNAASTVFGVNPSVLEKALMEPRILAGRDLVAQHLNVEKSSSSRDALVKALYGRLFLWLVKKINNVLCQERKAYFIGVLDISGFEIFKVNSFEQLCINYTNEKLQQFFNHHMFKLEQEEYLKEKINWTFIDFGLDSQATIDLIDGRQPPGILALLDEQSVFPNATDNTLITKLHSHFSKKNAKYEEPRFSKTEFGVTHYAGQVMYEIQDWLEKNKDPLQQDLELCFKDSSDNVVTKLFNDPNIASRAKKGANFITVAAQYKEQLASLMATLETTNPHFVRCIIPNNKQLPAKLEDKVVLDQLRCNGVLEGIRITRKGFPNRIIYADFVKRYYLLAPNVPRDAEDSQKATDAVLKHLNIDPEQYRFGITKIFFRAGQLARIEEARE", "assay": "Steady state MgATPase, NADH-coupled assay, DdMD", "format": "biochemical", "settings": "for IC50: 20° C.", "procedure": "as §1, §2"}, "[6]": {"test_system": "embryonic mouse hippocampal cells", "assay": "Neurite growth in embryonic hippocampal cell culture", "format": "cell-based", "settings": "50 μM", "procedure": "Embryonic mouse hippocampal cells were isolated from 17-day-old embryo and cultured on poly-D-lysine coated dish in neurobasal medium complemented with B27, FCS and glutamax for 20 hours.\nThe growth of neurites was monitored by phase contrast microscopy after the addition of 50 μM neurelaxin-A (Imaging buffer: Extracell isotonic salt solution, buffered with 5 mM HEPES)."}},
  "note": "Read-outs that look alike come from different tables or passages of the source.",
  "data": [
    {"smiles": "Cc1ccc2c(c1)C(=O)C1(O)CCN(c3ccc(N)cc3)C1=N2", "note": "(stereo not shown) [Neurelaxin-A, 1-(4-aminophenyl)-3a-hydroxy-6-methyl-3,3a-dihydro-1H-pyrrolo[2,3-b]quinolin-4(2H)-one]", "values": [
      {"measurement": "maximal extent of inhibition, actin activated ATPase of SkS1", "setting": "[1]; actin activated", "value": "98-100%"},
      {"measurement": "IC50", "setting": "[1]; actin activated, 50 nM SkS1, 45 μM actin, 25° C., read-out: IC50 actin activated ATPase activity of SkS1", "value": "0.47 ± 0.06", "unit": "µM"},
      {"measurement": "maximal extent of inhibition, basal ATPase of SkS1", "setting": "[1]; basal", "value": "98-100%"},
      {"measurement": "IC50", "setting": "[1]; basal, 500 nM SkS1, 25° C., read-out: IC50 basal ATPase of SkS1", "value": "1.3 ± 0.1", "unit": "µM"},
      {"measurement": "neuronal survival and axon maintenance under oxidative stress", "setting": "[2]", "value": "increased"},
      {"measurement": "cannabinoid-induced retraction of axonal growth cones", "setting": "[3]", "value": "significantly prevented"},
      {"measurement": "amplitude of heart muscle contraction", "setting": "[4]", "value": "dropped drastically"},
      {"measurement": "inhibition reached, actin activated ATPase of DdMD", "setting": "[5]; actin activated", "value": 80, "unit": "%"},
      {"measurement": "IC50", "setting": "[5]; actin activated, 300 nM DdMD, 15 μM actin, read-out: IC50 actin activated ATPase activity of DdMD", "value": "6.7 ± 1.9", "unit": "µM"},
      {"measurement": "inhibition reached, basal ATPase of DdMD", "setting": "[5]; basal", "value": 90, "unit": "%"},
      {"measurement": "IC50", "setting": "[5]; basal, 1 μM DdMD, read-out: IC50 basal ATPase of DdMD", "value": "6.6 ± 2", "unit": "µM"},
      {"measurement": "rate of neurite growth", "setting": "[6]", "value": 1, "unit": "μm/min"},
      {"measurement": "rate of neurite growth", "setting": "[6]; listed as neurelaxin-A", "value": "approximately 1 μm/min"}
    ]}
  ]
}
